Results published in PubChem BioAssay AID2060502 (Molecular Pharmacology Branch, DTP, NCI, 2025).

System: 885724-159-R-J1-PDC complex spheroid viability
Experiment: Anticancer human tumor 885724-159-R-J1-PDC patient-derived pancreatic adenocarcinoma cell line growth inhibition [GQUAD]
Conditions: for IC50: curve of first compound; for viability, T/C: stronger effect = lower value
How it was run: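 Tumor cells were grown as complex spheroids with HUVEC endothelial cells and mesenchymal stem cells as stroma. G-quadruplex stabilizers were combined with targeted agents over half-log dilutions from near the clinical Cmax, or from 10 microM.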

[1] = second compound 0.0316 µM, first compound 0.0316 µM
[2] = second compound 0.0316 µM, first compound 0.1 µM
[3] = second compound 0.0316 µM, first compound 0.316 µM
[4] = second compound 0.0316 µM, first compound 1 µM
[5] = second compound 0.0316 µM, first compound 3.16 µM
[6] = second compound 0.0316 µM, first compound 10 µM
[7] = second compound 0.1 µM, first compound 0.0316 µM
[8] = second compound 0.1 µM, first compound 0.1 µM
[9] = second compound 0.1 µM, first compound 0.316 µM
[10] = second compound 0.1 µM, first compound 1 µM
[11] = second compound 0.1 µM, first compound 3.16 µM
[12] = second compound 0.1 µM, first compound 10 µM
[13] = second compound 0.316 µM, first compound 0.0316 µM
[14] = second compound 0.316 µM, first compound 0.1 µM
[15] = second compound 0.316 µM, first compound 0.316 µM
[16] = second compound 0.316 µM, first compound 1 µM
[17] = second compound 0.316 µM, first compound 3.16 µM
[18] = second compound 0.316 µM, first compound 10 µM
[19] = second compound 1 µM, first compound 0.0316 µM
[20] = second compound 1 µM, first compound 0.1 µM
[21] = second compound 1 µM, first compound 0.316 µM
[22] = second compound 1 µM, first compound 1 µM
[23] = second compound 1 µM, first compound 3.16 µM
[24] = second compound 1 µM, first compound 10 µM
[25] = second compound 3.16 µM, first compound 0.0316 µM
[26] = second compound 3.16 µM, first compound 0.1 µM
[27] = second compound 3.16 µM, first compound 0.316 µM
[28] = second compound 3.16 µM, first compound 1 µM
[29] = second compound 3.16 µM, first compound 3.16 µM
[30] = second compound 3.16 µM, first compound 10 µM
[31] = second compound 10 µM, first compound 0.0316 µM
[32] = second compound 10 µM, first compound 0.1 µM
[33] = second compound 10 µM, first compound 0.316 µM
[34] = second compound 10 µM, first compound 1 µM
[35] = second compound 10 µM, first compound 3.16 µM
[36] = second compound 10 µM, first compound 10 µM
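Also: spheroids exposed to agents for seven days before readout.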
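For viability, T/C in this document: percent of vehicle control viability where 100% = DMSO wells.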

CC(=O)O[C@H]1C(=O)[C@@]2(C)[C@H]([C@H](OC(=O)c3ccccc3)[C@]3(O)C[C@H](OC(=O)[C@H](O)[C@@H](NC(=O)c4ccccc4)c4ccccc4)C(C)=C1C3(C)C)[C@]1(OC(C)=O)CO[C@@H]1C[C@@H]2O + Cc1[nH]c2ccc(F)cc2c1-c1nc2c3cccnc3c3ncccc3c2[nH]1
IC50 (second compound 0.0316 µM): > 10000 nM | IC50 (second compound 0.1 µM): > 10000 nM | IC50 (second compound 0.316 µM): > 10000 nM | IC50 (second compound 1 µM): > 10000 nM | IC50 (second compound 3.16 µM): < 31.6 nM | IC50 (second compound 10 µM): > 10000 nM | viability, T/C [1]: 102% | viability, T/C [2]: 76.5% | viability, T/C [3]: 85.7% | viability, T/C [4]: 91.4% | viability, T/C [5]: 81.6% | viability, T/C [6]: 83.3% | viability, T/C [7]: 112% | viability, T/C [8]: 83.2% | viability, T/C [9]: 78% | viability, T/C [10]: 84.8% | viability, T/C [11]: 86.5% | viability, T/C [12]: 87% | viability, T/C [13]: 87.8% | viability, T/C [14]: 77.8% | viability, T/C [15]: 82.8% | viability, T/C [16]: 79.6% | viability, T/C [17]: 80.8% | viability, T/C [18]: 80.2% | viability, T/C [19]: 69.5% | viability, T/C [20]: 54.7% | viability, T/C [21]: 61.8% | viability, T/C [22]: 51.1% | viability, T/C [23]: 78.6% | viability, T/C [24]: 55.5% | viability, T/C [25]: 16.7% | viability, T/C [26]: 6.91% | viability, T/C [27]: 7.17% | viability, T/C [28]: 8.73% | viability, T/C [29]: 10% | viability, T/C [30]: 5.61% | viability, T/C [31]: 56.7% | viability, T/C [32]: 53.2% | viability, T/C [33]: 54.5% | viability, T/C [34]: 55% | viability, T/C [35]: 68.5% | viability, T/C [36]: 59.2%

CC(C)(O)C1CCC(Nc2ccc3ncc(-c4cccc(C(F)(F)F)c4)n3n2)CC1 (centres undefined) + Cc1[nH]c2ccc(F)cc2c1-c1nc2c3cccnc3c3ncccc3c2[nH]1
IC50 (second compound 0.0316 µM): 2500 nM | IC50 (second compound 0.1 µM): 2760 nM | IC50 (second compound 0.316 µM): 1520 nM | IC50 (second compound 1 µM): 538 nM | IC50 (second compound 3.16 µM): < 31.6 nM | IC50 (second compound 10 µM): 1030 nM | viability, T/C [1]: 96.3% | viability, T/C [2]: 93.1% | viability, T/C [3]: 83.1% | viability, T/C [4]: 84.6% | viability, T/C [5]: 37.3% | viability, T/C [6]: 44.7% | viability, T/C [7]: 97.1% | viability, T/C [8]: 91.6% | viability, T/C [9]: 77.4% | viability, T/C [10]: 72.1% | viability, T/C [11]: 41.4% | viability, T/C [12]: 41.2% | viability, T/C [13]: 90.5% | viability, T/C [14]: 78.3% | viability, T/C [15]: 82.8% | viability, T/C [16]: 55.5% | viability, T/C [17]: 40.7% | viability, T/C [18]: 38.3% | viability, T/C [19]: 77% | viability, T/C [20]: 58.2% | viability, T/C [21]: 57.2% | viability, T/C [22]: 47.6% | viability, T/C [23]: 33.8% | viability, T/C [24]: 29.6% | viability, T/C [25]: 19.3% | viability, T/C [26]: 8.78% | viability, T/C [27]: 9.83% | viability, T/C [28]: 9.8% | viability, T/C [29]: 7.07% | viability, T/C [30]: 7.05% | viability, T/C [31]: 67.9% | viability, T/C [32]: 59% | viability, T/C [33]: 57.7% | viability, T/C [34]: 50.5% | viability, T/C [35]: 28.2% | viability, T/C [36]: 35.4%
